From patent publication US9920300B2, “Induction of germ cells from pluripotent cells” (The Board of Trustees of the Leland Stanford Junior …, priority 2009, dated 2018)

Legend:
[1] = tested on: DAZ; assay: shRNA silencing of DAZ2-V5 and DAZ1-4 in 293T/293FT cells (Western); type: cell-based, human; settings: for Protein level of DAZ2-V5: cotransfected
Experimental: All shRNAs targeting human DAZL, DAZ and BOULE were constructed using the Block-iT inducible H1 lentiviral system (Invitrogen). All shRNAs were first introduced into pENTR/H1/TO vectors and transferred into pLenti4/BLOCK-iT-DEST destination vectors (see below for sequence information). When shRNA was tested in 293FT cells for its efficacy of silencing, transient transfection without selection was carried out and cell lysate was collected after 24 h. After specific shRNA was chosen, viral supernatant was prepared as described for pLVGV. Subsequently, the viral supernatant was used to transduce human ES cells on matrigel as described above, except with zeocin selection (2 μg/ml) for 3 days for stable integration of the shRNA vector into human ES cells. Overexpression vectors were constructed by inserting the EF1μ, promoter, and DAZL, DAZ2 or BOULE cDNA into the p2k7bias vectors, selected with blasticidin (2 μg ml^−1) in culture for 3 days to ensure stable integration and subjected for each differentiation experiment. shRNA sequences were:
cDNA clones of DAZ1-4 (NCBI accession numbers: DAZ1, BC11492; DAZ2, NM_020363; DAZ3, BC113005; DAZ4, BC047480) were obtained from ATCC, PCR amplified, cloned into pENTR-D-TOPO vector, and subsequently cloned into pLenti4/TO/V5-DEST (Invitrogen). […] Co-transfection of the overexpression vector and shDAZ4 at the ratio of 1:1 and 1:2 into 293FT cells was carried out and all the lysates were collected after 24 h and loaded equally onto 10% SDS-PAGE gel.

[2] = tested on: DAZL; assay: shRNA silencing of DAZL-V5 / DAZL:GFP cotransfected in 293T cells; type: cell-based, human
Experimental: (§1) To collect the adherently differentiated cells, cells were washed with 3 ml cold PBS without Ca^2+ and Mg^2+, then scraped from the plate in 1 ml PBS plus 2× protease inhibitors (Complete Mini, Roche) and transferred immediately to a 1.5-ml tube on ice. The PBS cell suspension was then spun at 5,000 r.p.m. in a microcentrifuge for 3 min and the supernatant was discarded. The cell pellet was resuspended with 200 ul RIPA buffer (50 mM Tris, 150 mM NaCl, 0.5% sodium deoxycholate, 1% NP-40, 0.1% SDS, pH 8) plus 2× protease inhibitors (Complete Mini, Roche). The cell pellet suspension was pipetted rigorously at least 10 times, then vortexed for 30 sec. The suspension was again spun down for 3 min at the same speed. The supernatant was measured for protein concentration and denatured at a 1:1 ratio with 2× Laemmli buffer at 95° C. for 5 min, then loaded onto either a 10% or 12% SDS-PAGE gel. The SDS-PAGE gels were run at 150 V for 1 h and transferred to a PVDF membrane for 1 h at 100 V in CAPS buffer (10 mM CAPS, 10% methanol, pH 11). Transferred blots were blocked in 5% non-fat milk for 1 h at room temperature. […]

[3] = tested on: DAZL and VASA; assay: Western blot of DAZL and VASA in human ES cells after silencing/overexpression; type: cell-based; settings: human ES cells differentiated 14 days with BMPs
Experimental: as §1

[4] = tested on: VASA-GFP+ population of human ES cells (H9, HSF1); assay: VASA-GFP reporter FACS of differentiated human ES cells (Example 1); type: cell-based; settings: XX line (H9), 14 days
Experimental: 2.5 kb of human VASA upstream of the first codon was cloned into pENTR 5′-TOPO. EGFP was fused 1 kb downstream of the last codon of human VASA, and cloned into pENTR/D-TOPO. Cloned plasmids were recombined (Suter, D. M. et al. (2006) Stem Cells 24, 615-623) to create pLVGV. Lentiviral supernatant was produced, human ES cells were transduced overnight on matrigel in conditioned medium and subsequently selected with geneticin ([…]) for 7 days. Selected human ES cells were differentiated for the times indicated and harvested by brief treatment with collagenase IV and then TrypLEExpress (Invitrogen). The cell suspension was prepared in differentiation medium for FACS with a MoFlow or BD cell sorter.
Four human ES cell lines were used in this study: HSF1 (XY), HSF6 (XX), H1 (XY) and H9 (XX). Undifferentiated cultures of human ES cells were maintained on irradiated MEFs as previously described in Kee, K. et al (2006) Stem Cells Dev. 15: 831-837. Briefly, all cultures were grown at 37° C. with 5% CO2 in knockout serum replacer (KSR) plus bFGF medium (knockout DMEM, supplemented with 20% knockout serum replacer, 1 mM L-glutamine, 0.1 mM nonessential amino acids, 0.1 mM 2-mercaptoethanol, and 4 ng ml^−1 recombinant human bFGF (bFGF, R&D systems)). […]

[5] = tested on: hESCs (H9) differentiating to germ cells; assay: qPCR gene expression in hESCs differentiated with BMPs in the presence of PAHs; type: cell-based, human
Experimental: (§2) A federally approved hESC line (H9, XX) was maintained and differentiated as previously described (see methods of Kee, K., et al. (2006) Stem Cells & Differentiation 15: 831-837, the disclosure of which is incorporated herein). Briefly, adherent differentiation began upon the addition of differentiation media containing 20% FBS (Hyclone) and supplemented with Bone Morphogenetic Proteins (BMPs) -4, -7, and -8b (R&D) reconstituted in 4 mM HCl/0.1% BSA and used at 50 ng/ml. DMBA (Sigma), ANF (Sigma) and DMBA-DHD(MRI) were dissolved in DMSO at a 1:1000 dilution before adding to the media to the indicated final concentrations.
Total RNA was extracted using the RNeasy kit (Qiagen) and cDNA prepared with SuperScriptIII (Invitrogen) according to the manufacturer's protocols using 1 μg RNA. The cDNA was subjected to a pre-amplification using 1.25 μl out of 20 μl total cDNA, 1 μl Platinum Taq (Invitrogen), 5 μl CellsDirect 2× Reaction Buffer and 2.5 μl 0.2× Taqman (Applied Biosystem) probe mix. PCR cycle program for pre-amplification is: 95° C., 10 minutes; 95° C., 15 seconds and 60° C., 4 minutes for 14 cycles. Assays and samples are prepared according to the Fluidigm protocol and run on a 48×48 chip. BioMark (Fluidigm) program was used to obtain delta Ct value before imported into Excel file sheet to calculate delta-delta Ct value=2^(CtGene−CtHousekeeping genes). The delta-delta Ct value is then normalized to the control of each experiment to obtain the final normalized expression level. All delta-delta Ct values were calculated using four housekeeping genes (GAPDH, CTNNB1, ACTS, CENTRIN) except in experiment in FIG. 35, which only used GAPDH as housekeeping gene in a regular qPCR reaction in 7300 Real Time PCR System (Applied Biosystems).

[6] = tested on: mouse fetal germ cells; settings: mouse fetal germ cells incubated with PAHs; cited from earlier work
[7] = tested on: VASA:GFP+ PGCs from hESCs; assay: VASA:GFP reporter FACS of hESCs with DMBA-DHD and shAHR (Example 3); type: cell-based, human
Experimental: as §2
shRNA was used to target AHR by the BLOCK-IT™ Inducible H1 Lentiviral RNAi System (Invitrogen). Double stranded oligos were generated, ligated into the pENTR vector and transfected into 293FT cells for initial screening. After 24 hours, RNA was harvested using the RNeasy kit and cDNA generated using SuperScriptIII with 1 μg total RNA input. The destination lentiviral vector was generated by recombining the pENTR vector with the pLenti4/BLOCK-it-DEST vector via the Gateway technology according to the manufacturer's protocol. Lentiviral supernatant carrying the pLenti4/BLOCK-it-DEST-shAHR vector was generated by co-transfection with 10 μg of each vector with 10 μg Vsvg and 15 μg Δ8.9 into 293FT cells grow on T175 plates. Supernatant was harvested after three days and either used immediately for transduction of hESCs or frozen at −80° C. until further usage. hESCs prepared for transduction were plated to 50% confluency on matrigel coated plates. Polybrene was added to the lentivirus supernatant for a final concentration of 8 μg/ml. […]
Single cell suspensions were prepared by incubating differentiated hESCs in Collagenase Type IV (1 mg/ml) for ten minutes, followed by ten minutes in TrypLE (Invitrogen). […] Luminescence was measured after 1 hour of incubation at room temperature with Fluostar Optima (BMG).

[8] = tested on: VASA:GFP+ and VASA:GFP− cells; assay: Caspase 3/7 apoptosis assay in FACS-sorted cells; type: cell-based, human; settings: 1 μM DMBA-DHD
Experimental: Single cell suspensions were prepared by incubating differentiated hESCs in Collagenase Type IV (1 mg/ml) for ten minutes, followed by ten minutes in TrypLE (Invitrogen). Cell pellet was resuspended in 0.5 ml differentiated media and passed through a 40 μm strainer. Cell suspensions were then subjected to FACS analysis with BD FACSAria system (BD). Cells were sorted for either VASA:GFP+ or VASA:GFP−. 1000 cells of each group were collected in 100 μl PBS and mixed with 100 μl of Caspase-Glo 3/7 reagent according to manufacturer protocol (Promega). Luminescence was measured after 1 hour of incubation at room temperature with Fluostar Optima (BMG).

For “shDAZ1: shRNA 5′-GCAAATCCTGAGACTCCAAAC-3′, SEQ ID NO: 31”, the “Protein level of DAZ2-V5” value [1] was “significantly decreased”.
With “shDAZ3: shRNA 5′-GCCACGTCCTTTGGTAGTTAA-3′, SEQ ID NO: 33” the “Protein level of DAZ2-V5” value [1] was “significantly decreased”.
With “shDAZL4: shRNA 5′-GCAGAAGATAGTAGAATCACA-3′, SEQ ID NO: 27” the “Silencing of DAZL:GFP fusion protein” value [2] was “most effective silencer for DAZL”, the “Expression of DAZL and VASA” value [3] was “significantly reduced” and the “VASA-GFP+ population” value [4] was “reduced”.
For “shDAZL2: shRNA 5′-GCATATCCTACTTACCCAAAT-3′, SEQ ID NO: 25”, the “Silencing of DAZL:GFP fusion protein” value [2] was “most effective” and the “Expression of DAZL and VASA” value [3] was “significantly reduced”.
In the case of `O=c1cc(-c2ccccc2)oc2c1ccc1ccccc12` [ANF, α-napthoflavone], the “Rescue of KDR and NES expression” value ([5]; ANF added with DMBA-DHD) is reported as “no rescue”, the “Expression of germ cell markers VASA, DAZL and PRDM1” value ([5]; ANF added with DMBA-DHD, relative to DMBA-DHD addition alone) is reported as “increased” and the BAX expression ([5]; ANF added with DMBA-DHD, relative to DMBA-DHD alone) is reported as “decreased”. For the same compound, the “Fetal germ cell toxicity of PAHs” value [6] was “could be prevented”.
In the case of “shDAZ4: shRNA 5′-GCATTTCCTGCTTATCCAAAT-3′, SEQ ID NO: 34”, the “Silencing of DAZ1-4 proteins” value ([1]; 293FT cells) is reported as “all four DAZ proteins were silenced” and the “Protein level of DAZ2-V5” value [1] is reported as “significantly decreased”.
With `Cc1c2ccccc2c(C)c2c3c(ccc12)C(O)C(O)C=C3` (centres unmarked) [DMBA-DHD, DMBA-3,4-dihydrodiol] the “Potency relative to DMBA (decrease in germ cell specific gene expression)” value ([5]; 0.1 μM DMBA-DHD comparable to 1 μM DMBA, 1 μM DMBA-DHD more potent than 10 μM DMBA) was “at least one log”, the “Expression of AFP and CDX2” value ([5]; hESCs differentiated with BMPs) was “not reproducibly reduced” and the “Expression of somatic markers KDR and NES” value ([5]; hESCs differentiated with BMPs) was “did not significantly alter”. The “Increase of BAX expression” value ([5]; hESCs differentiated with BMPs, vs DMSO control) was 20 fold, the “Number of PGCs out of 20,000 differentiated hESCs” value ([7]; hESCs carrying shLacZ, 1 μM DMBA-DHD, control 908) was about 626 and the “Percentage of VASA:GFP+ PGCs” value ([7]; hESCs carrying shLacZ, 14 days BMP induction, 1 μM DMBA-DHD, untreated control 4.5%) was 3.1%. The “Reduction in human PGCs” value ([7]; in the presence of DMBA-DHD) was “less than two-fold”, the “Apoptosis activity (Caspase 3/7)” value ([8]; VASA:GFP+ cells) was “significantly increased” and the “Apoptosis activity (Caspase 3/7)” value ([8]; VASA:GFP− cells) was “not in the VASA:GFP− cells”.
For “shDAZ5: shRNA 5′-GCATTTCCTGCTTATCCAAGT-3′, SEQ ID NO: 35”, the “Protein level of DAZ2-V5” value [1] was “significantly decreased”.
